Reference: the supplement of paper PMC10307832

Tests used:
Test in all cases: relative viability (nuclei count vs DMSO), 5 days (fraction); higher = more cells survive
[1] = compound: COc1cc(Nc2c(C#N)cnc3cc(OCCCN4CCN(C)CC4)c(OC)cc23)c(Cl)cc1Cl [Bosutinib] + CC(=O)Nc1cccc(-n2c(=O)n(C3CC3)c(=O)c3c(Nc4ccc(I)cc4F)n(C)c(=O)c(C)c32)c1 [Trametinib] (partner 0.02 µM)
Procedure, shortened: (§1)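 Lung cancer cell lines in 1536-well plates got either a single drug or a fixed anchor-drug dose together with five library-drug doses (not always all listed) in √10 steps, by pin tool, on the day after seeding. Nuclei were counted after 5 days, and relative viability is the treated-to-vehicle ratio of nuclei counts. Values are medians of duplicate plates.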

[2] = compound: COc1cc(Nc2c(C#N)cnc3cc(OCCCN4CCN(C)CC4)c(OC)cc23)c(Cl)cc1Cl [Bosutinib] + CC(=O)c1c(C)c2cnc(Nc3ccc(N4CCNCC4)cn3)nc2n(C2CCCC2)c1=O [Palbociclib] (partner 0.5 µM)
Procedure, shortened: as §1

[3] = compound: COc1cc(Nc2c(C#N)cnc3cc(OCCCN4CCN(C)CC4)c(OC)cc23)c(Cl)cc1Cl [Bosutinib] + Cc1cc(Nc2cc(N3CCN(C)CC3)nc(Sc3ccc(NC(=O)C4CC4)cc3)n2)n[nH]1 [Tozasertib] (partner 0.1 µM)
Procedure, shortened: as §1

[4] = compound: COc1cc(Nc2c(C#N)cnc3cc(OCCCN4CCN(C)CC4)c(OC)cc23)c(Cl)cc1Cl [Bosutinib] + Cc1nc(Nc2ncc(C(=O)Nc3c(C)cccc3Cl)s2)cc(N2CCN(CCO)CC2)n1 [Dasatinib] (partner 0.075 µM)
Procedure, shortened: as §1

[5] = compound: COc1cc(Nc2c(C#N)cnc3cc(OCCCN4CCN(C)CC4)c(OC)cc23)c(Cl)cc1Cl [Bosutinib] + NC(=O)Nc1cc(-c2cccc(F)c2)sc1C(=O)N[C@H]1CCCNC1 [AZD7762] (partner 0.2 µM)
Procedure, shortened: as §1

Cell Line | relative viability ([1]; first compound 0.01 µM) | relative viability ([1]; first compound 0.03162 µM) | relative viability ([1]; first compound 0.1 µM) | relative viability ([1]; first compound 1 µM) | relative viability ([2]; first compound 0.01 µM) | relative viability ([2]; first compound 0.03162 µM) | relative viability ([2]; first compound 0.1 µM) | relative viability ([2]; first compound 1 µM) | relative viability ([3]; first compound 0.01 µM) | relative viability ([3]; first compound 0.03162 µM) | relative viability ([3]; first compound 0.1 µM) | relative viability ([3]; first compound 1 µM) | relative viability ([4]; first compound 0.01 µM) | relative viability ([4]; first compound 0.03162 µM) | relative viability ([4]; first compound 0.1 µM) | relative viability ([4]; first compound 1 µM) | relative viability ([5]; first compound 0.01 µM) | relative viability ([5]; first compound 0.03162 µM) | relative viability ([5]; first compound 0.1 µM) | relative viability ([5]; first compound 1 µM)
NCI-H1355 | 0.474 | 0.425 | 0.45 | 0.419 | 0.415 | 0.396 | 0.386 | 0.372 | 0.549 | 0.603 | 0.524 | 0.475 | 0.746 | 0.673 | 0.731 | 0.709 | 0.801 | 0.707 | 0.707 | 0.534
NCI-H1793 | 0.383 | 0.394 | 0.454 | 0.298 | 0.272 | 0.311 | 0.326 | 0.266 | 0.363 | 0.404 | 0.373 | 0.23 | 0.465 | 0.392 | 0.391 | 0.347 | 0.497 | 0.39 | 0.366 | 0.175
NCI-H838 | 0.518 | 0.483 | 0.472 | 0.316 | 0.23 | 0.209 | 0.2 | 0.174 | 0.306 | 0.294 | 0.263 | 0.215 | 0.325 | 0.302 | 0.334 | 0.332 | 0.994 | 0.914 | 0.892 | 0.807
EMC-BAC-2 | 0.848 | 0.887 | 0.857 | 0.773 | 0.519 | 0.5 | 0.508 | 0.533 | 0.287 | 0.291 | 0.311 | 0.282 | 0.356 | 0.325 | 0.347 | 0.328 | 1.18 | 1.11 | 1.13 | 1.09
LU99A | 0.53 | 0.623 | 0.645 | 0.517 | 0.45 | 0.409 | 0.44 | 0.421 | 0.275 | 0.276 | 0.291 | 0.311 | 0.611 | 0.582 | 0.635 | 0.548 | 0.376 | 0.362 | 0.354 | 0.287
PC-3 [JPC-3] | 0.725 | 0.691 | 0.647 | 0.467 | 0.506 | 0.543 | 0.542 | 0.516 | 0.856 | 0.854 | 0.92 | 0.819 | 1.04 | 0.931 | 0.996 | 0.834 | 0.787 | 0.738 | 0.689 | 0.641
LCLC-97TM1 | 0.201 | 0.209 | 0.192 | 0.179 | 0.224 | 0.245 | 0.256 | 0.2 | 0.461 | 0.267 | 0.244 | 0.362 | 0.849 | 0.869 | 0.851 | 0.685 | 0.31 | 0.286 | 0.315 | 0.191
NCI-H1993 | 0.461 | 0.513 | 0.579 | 0.538 | 0.67 | 0.783 | 0.718 | 0.619 | 0.549 | 0.538 | 0.564 | 0.496 | 0.492 | 0.63 | 0.589 | 0.622 | 0.759 | 0.778 | 0.847 | 0.672
HARA | 0.943 | 0.745 | 0.633 | 0.57 | 0.339 | 0.293 | 0.243 | 0.171 | 0.119 | 0.149 | 0.104 | 0.125 | 0.303 | 0.296 | 0.304 | 0.385 | 0.304 | 0.308 | 0.297 | 0.644
NCI-H460 | 0.17 | 0.135 | 0.157 | 0.0941 | 0.165 | 0.173 | 0.148 | 0.0817 | 0.555 | 0.545 | 0.479 | 0.112 | 0.548 | 0.491 | 0.51 | 0.537 | 0.645 | 0.576 | 0.482 | 0.415
EKVX | 0.306 | 0.334 | 0.364 | 0.228 | 0.39 | 0.367 | 0.373 | 0.314 | 0.373 | 0.379 | 0.355 | 0.236 | 0.549 | 0.505 | 0.611 | 0.491 | 0.441 | 0.751 | 0.735 | 0.656
NCI-H1755 | 0.706 | 0.798 | 0.856 | 0.76 | 0.435 | 0.456 | 0.433 | 0.469 | 0.585 | 0.736 | 0.605 | 0.5 | 0.427 | 0.476 | 0.438 | 0.433 | 0.412 | 0.462 | 0.446 | 0.418
NCI-H1395 | 0.992 | 0.993 | 1.02 | 0.928 | 0.595 | 0.539 | 0.643 | 0.48 | 0.758 | 0.727 | 0.718 | 0.66 | 0.414 | 0.429 | 0.405 | 0.436 | 0.405 | 0.425 | 0.387 | 0.38
NCI-H2087 | 0.156 | 0.218 | 0.228 | 0.223 | 0.247 | 0.263 | 0.218 | 0.276 | 0.293 | 0.227 | 0.222 | 0.271 | 0.871 | 0.848 | 0.913 | 0.848 | 1.54 | 1.13 | 1.31 | 1.24
H3255 | – | 0.578 | 0.63 | 0.422 | 0.322 | 0.306 | 0.323 | 0.319 | 0.696 | 0.645 | 0.719 | 0.326 | 0.369 | 0.381 | 0.364 | 0.288 | 0.846 | 1.02 | 0.949 | 0.517
NCI-H23 | 0.343 | 0.344 | 0.36 | 0.277 | 0.515 | 0.476 | 0.464 | 0.591 | 0.368 | 0.345 | 0.404 | 0.364 | 0.927 | 0.937 | 0.679 | 0.76 | 0.356 | 0.205 | 0.202 | 0.164
